Results reported in patent US11528909B2, “Method of controlling nematodes in agricultural crops” (priority 2020, dated 2022).

Columns and labels:
[1] = system: soybean cyst nematode J2s; test: Soybean cyst nematode J2 treatment in Petri dish (cuticle covering, molting, death); assay type: in vivo; conditions: for MEAN SCN Covered Cuticle / MEAN SCN Dead J2s: ten freshly hatched J2s per dish, three replicates
Source text: Different developmental stages of soybean cyst nematode were targeted for treatment in soil. Soybean cyst nematode has an egg stage, four juvenile stages (samples J1 to J4), adult male and female stages. From J1 to adult development, during each development stage, the nematode undergoes a molt, that is, a shedding of the outside cuticle and forming a new cuticle.
Ten freshly hatched J2s were removed from pure culture and added to three different concentrations (0.5 weight %, […], and 0.12 weight % of Composition solution in a […] Petri dish containing DI water. Composition is (CH3O)3Si(CH2)3N^+ C18H37(CH3)2 Cl^−.
Observations were made over time under an inverted microscope and compound microscope and for both soybean cyst nematode in Composition and also in just DI water which were replicated three times.

[2] = system: soybean cyst nematode J2s; test: as above; assay type: in vivo; conditions: 0.25% Composition in DI water; ten freshly hatched J2s per dish, three replicates

Structure (SMILES): CCCCCCCCCCCCCCCCCC[N+](C)(C)CCC[Si](OC)(OC)OC.[Cl-] [Composition, 3-(trimethoxysilyl)-propyldimethyloctadecyl ammonium chloride]
- MEAN SCN Covered Cuticle ([1]; 0.12% Composition in DI water): 5.3
- MEAN SCN Dead J2s ([1]; 0.12% Composition in DI water): 6.66
- MEAN SCN Covered Cuticle ([1]; 0.5% Composition in DI water): 5.16
- MEAN SCN Dead J2s ([1]; 0.5% Composition in DI water): 8.00
- Microscopic observation of J2s after one day ([1]; all concentrations, after one day): accumulates on the cuticle of J2s
- Microscopic observation of J2s on the second day ([1]; all concentrations, second day): J2s shed the cuticle
- Statistical effect on soybean cyst nematode J2s (covered cuticles and dead nematodes versus treatment) ([1]; all tested concentrations): significantly affects the soybean cyst nematode J2s
- Overall effect on the nematode in vitro ([1]; in vitro): cuticle disruption and therefore accelerated molting of the nematode in vitro and ultimate death of the nematodes
- MEAN SCN Covered Cuticle [2]: 5.16
- MEAN SCN Dead J2s [2]: 7.66
